Target: 3-beta-hydroxysteroid-Delta(8),Delta(7)-isomerase (Homo sapiens, UniProt Q15125)
Assay: Inhibition of EBP derived from HEK293T cells using zymosterol-d5 as substrate preincubated for 30 mins followed by substrate addition measured after 4 hrs by LC-APCI MRM MS analysis
Format: cell-based

Chain of 3-beta-hydroxysteroid-Delta(8),Delta(7)-isomerase (Q15125 whole entry): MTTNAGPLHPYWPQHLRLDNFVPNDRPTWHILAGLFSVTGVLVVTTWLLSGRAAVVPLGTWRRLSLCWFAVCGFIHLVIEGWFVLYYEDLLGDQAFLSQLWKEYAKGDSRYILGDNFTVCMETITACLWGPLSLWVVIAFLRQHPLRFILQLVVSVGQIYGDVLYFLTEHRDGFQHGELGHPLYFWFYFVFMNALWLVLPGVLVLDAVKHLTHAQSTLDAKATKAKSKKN

Compound	IC50
Cc1nc(C(F)(F)F)ncc1S(=O)(=O)N1CCC2(CC1)CC(N(C)C1CC3(COC3)C1)CO2 (stereo unspecified)	< 100 nM
Cn1nc(C2CC2)cc1S(=O)(=O)N1CCC2(CC1)CC(NC1CCOCC1)C2	< 100 nM
COc1nccc(S(=O)(=O)N2CCC3(CCC(N4CCOCC4)C3)CC2)c1F (stereo unspecified)	< 100 nM

Results, then the molecule that gave them:

IC50	Compound
< 100 nM	O=S(=O)(c1ccc2c(c1)OCCO2)N1CCC2(CCC(N3CC4(COC4)C3)C2)CC1 (stereo unspecified)
< 100 nM	O=S(=O)(c1coc(C(F)(F)F)c1)N1CCC2(CCC(N3CC4(COC4)C3)C2)CC1 (stereo unspecified)
< 100 nM	O=S(=O)(c1ccc(F)cc1)N1CCC2(CCC(N3CC4(COC4)C3)C2)CC1 (stereo unspecified)

From ChEMBL document CHEMBL5370677, “Emopamil-Binding Protein Inhibitors for Treating Multiple Sclerosis” (ACS Med Chem Lett, 2023)
